This note sets out measurements from patent publication US10508120B2, “TYK2 inhibitors and uses thereof” (Nimbus Lakshmi, Inc., priority 2017, dated 2019).

Experiment [1] deals with Tyk2/JAK2 (heterodimeric complex) (Homo sapiens (Human), UniProt P29597). The experiment is described as follows: IL-12 Induced pSTAT4 in Human PBMC. Format: cell-based. The conditions noted are these: 1.7 ng/mL IL-12. The text has this: The IL-12 Induced pSTAT4 assay evaluates the inhibition of IL-12 induced STAT4 phophorylation mediated by Tyk2/JAK2 (heterodimeric complex).

Experiment [2] deals with human TYK2 (JH2domain-pseudokinase) (Homo sapiens (Human), UniProt P29597). The experiment is described as follows: TYK2 JH2 Domain Binding Assay (KINOMEscan). Summed up: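 The construct was human TYK2 G556–D888 fused to the NFkB DNA-binding domain and expressed in HEK293 cells; unpurified extract was incubated with compound and liganded beads for 1 hour at room temperature.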

Experiment [3] concerns the target JAK2 kinase domain (JH1) (Homo sapiens (Human), UniProt O60674). Briefly: JAK2 Radioactive Kinase Assay. Format: biochemical. The conditions noted are these: 10 μM compound, 10 μM ATP; for inhibition at 10 µM: read-out: JAK2 JH1% Inhibition @ 10 μM. A digest of the protocol: (§1)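 Read-out is percent inhibition from a radioactive kinase reaction, measured with compound at 10 μM.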

In experiment [4] the target is Tyk2 kinase domain (DH1) (Homo sapiens (Human), UniProt P29597). Briefly: Tyk2 Radioactive Kinase Assay. Format: biochemical. Particulars: 10 μM compound, 10 μM ATP; for inhibition at 10 µM: read-out: Tyk2 JH1% Inhibition @ 10 μM. Summed up: as §1
Experiment [5] has as its target JAK2/JAK2 homdimeric complex (Homo sapiens (Human), UniProt O60674). The experiment is described as follows: GM-CSF Induced pSTAT5 in Human PBMC. Format: cell-based. The conditions noted are these: GM-CSF 5 ng/mL for 20 minutes, pSTAT5 by MSD, read-out: PBMC_GMCSF_pSTAT5 IC50.

A value given as a limit tells only on which side of the number the result lay.

Sequence of human TYK2 (JH2domain-pseudokinase) (P29597 556-888): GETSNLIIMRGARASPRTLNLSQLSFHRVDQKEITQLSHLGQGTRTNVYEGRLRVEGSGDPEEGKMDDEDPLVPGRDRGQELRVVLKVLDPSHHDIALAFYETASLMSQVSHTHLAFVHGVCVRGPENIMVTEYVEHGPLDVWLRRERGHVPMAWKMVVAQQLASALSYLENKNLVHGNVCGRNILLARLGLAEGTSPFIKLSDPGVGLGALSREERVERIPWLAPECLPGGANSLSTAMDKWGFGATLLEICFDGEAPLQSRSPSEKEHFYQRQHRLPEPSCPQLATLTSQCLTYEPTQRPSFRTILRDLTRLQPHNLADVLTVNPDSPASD
Sequence of Tyk2/JAK2 (heterodimeric complex) (P29597 whole entry, other chains not shown): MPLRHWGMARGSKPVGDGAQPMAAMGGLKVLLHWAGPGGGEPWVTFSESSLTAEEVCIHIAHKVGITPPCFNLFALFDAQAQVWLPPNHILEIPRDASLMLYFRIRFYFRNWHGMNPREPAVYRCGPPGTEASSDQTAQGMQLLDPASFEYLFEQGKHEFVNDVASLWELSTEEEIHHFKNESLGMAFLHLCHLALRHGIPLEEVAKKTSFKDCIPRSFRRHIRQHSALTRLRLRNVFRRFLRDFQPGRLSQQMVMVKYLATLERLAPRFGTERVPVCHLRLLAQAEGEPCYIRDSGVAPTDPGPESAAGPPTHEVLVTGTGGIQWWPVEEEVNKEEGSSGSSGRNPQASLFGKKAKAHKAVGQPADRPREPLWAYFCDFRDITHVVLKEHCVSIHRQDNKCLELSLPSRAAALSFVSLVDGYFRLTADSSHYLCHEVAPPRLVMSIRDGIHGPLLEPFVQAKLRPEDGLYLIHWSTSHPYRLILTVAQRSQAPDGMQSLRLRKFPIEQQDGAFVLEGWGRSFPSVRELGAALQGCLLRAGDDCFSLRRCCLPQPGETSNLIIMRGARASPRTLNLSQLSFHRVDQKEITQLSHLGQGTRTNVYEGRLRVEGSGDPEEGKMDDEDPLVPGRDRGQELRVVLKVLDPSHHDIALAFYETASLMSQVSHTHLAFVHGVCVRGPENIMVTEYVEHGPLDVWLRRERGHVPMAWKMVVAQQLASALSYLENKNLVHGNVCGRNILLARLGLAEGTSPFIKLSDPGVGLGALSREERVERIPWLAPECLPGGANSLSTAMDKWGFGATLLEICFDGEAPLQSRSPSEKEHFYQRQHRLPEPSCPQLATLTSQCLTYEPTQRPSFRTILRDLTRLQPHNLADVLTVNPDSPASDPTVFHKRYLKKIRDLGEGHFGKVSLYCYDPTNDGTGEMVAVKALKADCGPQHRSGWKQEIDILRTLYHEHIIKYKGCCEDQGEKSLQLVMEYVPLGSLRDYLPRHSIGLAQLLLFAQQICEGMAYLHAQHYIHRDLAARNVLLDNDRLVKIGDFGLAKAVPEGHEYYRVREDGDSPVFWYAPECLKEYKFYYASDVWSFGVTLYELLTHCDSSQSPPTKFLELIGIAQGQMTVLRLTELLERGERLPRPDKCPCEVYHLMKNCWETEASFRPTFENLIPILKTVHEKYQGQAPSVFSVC
Sequence of JAK2/JAK2 homdimeric complex (O60674 whole entry): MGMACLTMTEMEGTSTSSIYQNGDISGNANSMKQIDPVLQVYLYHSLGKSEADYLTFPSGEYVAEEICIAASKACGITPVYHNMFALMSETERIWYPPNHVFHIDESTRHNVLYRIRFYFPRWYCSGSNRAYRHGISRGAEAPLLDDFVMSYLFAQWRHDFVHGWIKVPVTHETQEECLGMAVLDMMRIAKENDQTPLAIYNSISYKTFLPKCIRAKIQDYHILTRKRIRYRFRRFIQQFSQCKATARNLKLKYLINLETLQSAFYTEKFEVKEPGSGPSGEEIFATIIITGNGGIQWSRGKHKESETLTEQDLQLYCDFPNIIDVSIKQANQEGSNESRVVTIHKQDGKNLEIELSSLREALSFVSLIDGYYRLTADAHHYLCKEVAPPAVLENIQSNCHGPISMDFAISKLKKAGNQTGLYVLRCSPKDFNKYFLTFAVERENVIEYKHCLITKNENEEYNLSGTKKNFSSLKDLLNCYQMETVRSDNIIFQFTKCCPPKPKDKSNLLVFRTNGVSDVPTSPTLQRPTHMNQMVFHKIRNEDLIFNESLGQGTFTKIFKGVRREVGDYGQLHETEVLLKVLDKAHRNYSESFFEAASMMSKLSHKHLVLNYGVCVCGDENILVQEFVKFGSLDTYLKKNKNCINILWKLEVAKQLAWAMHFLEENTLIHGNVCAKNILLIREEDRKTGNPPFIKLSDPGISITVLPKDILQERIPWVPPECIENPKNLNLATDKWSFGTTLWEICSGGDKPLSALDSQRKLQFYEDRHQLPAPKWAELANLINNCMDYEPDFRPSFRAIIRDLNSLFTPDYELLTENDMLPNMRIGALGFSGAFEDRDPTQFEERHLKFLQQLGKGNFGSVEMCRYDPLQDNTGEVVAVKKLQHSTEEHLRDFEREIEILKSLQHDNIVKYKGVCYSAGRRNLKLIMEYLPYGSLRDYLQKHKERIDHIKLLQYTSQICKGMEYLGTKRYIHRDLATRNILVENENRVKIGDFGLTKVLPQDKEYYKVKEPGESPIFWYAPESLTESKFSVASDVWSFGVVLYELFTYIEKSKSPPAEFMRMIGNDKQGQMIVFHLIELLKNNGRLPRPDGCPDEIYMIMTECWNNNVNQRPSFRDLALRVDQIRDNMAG
Sequence of JAK2/JAK2 homdimeric complex (P32927 17-897 partner): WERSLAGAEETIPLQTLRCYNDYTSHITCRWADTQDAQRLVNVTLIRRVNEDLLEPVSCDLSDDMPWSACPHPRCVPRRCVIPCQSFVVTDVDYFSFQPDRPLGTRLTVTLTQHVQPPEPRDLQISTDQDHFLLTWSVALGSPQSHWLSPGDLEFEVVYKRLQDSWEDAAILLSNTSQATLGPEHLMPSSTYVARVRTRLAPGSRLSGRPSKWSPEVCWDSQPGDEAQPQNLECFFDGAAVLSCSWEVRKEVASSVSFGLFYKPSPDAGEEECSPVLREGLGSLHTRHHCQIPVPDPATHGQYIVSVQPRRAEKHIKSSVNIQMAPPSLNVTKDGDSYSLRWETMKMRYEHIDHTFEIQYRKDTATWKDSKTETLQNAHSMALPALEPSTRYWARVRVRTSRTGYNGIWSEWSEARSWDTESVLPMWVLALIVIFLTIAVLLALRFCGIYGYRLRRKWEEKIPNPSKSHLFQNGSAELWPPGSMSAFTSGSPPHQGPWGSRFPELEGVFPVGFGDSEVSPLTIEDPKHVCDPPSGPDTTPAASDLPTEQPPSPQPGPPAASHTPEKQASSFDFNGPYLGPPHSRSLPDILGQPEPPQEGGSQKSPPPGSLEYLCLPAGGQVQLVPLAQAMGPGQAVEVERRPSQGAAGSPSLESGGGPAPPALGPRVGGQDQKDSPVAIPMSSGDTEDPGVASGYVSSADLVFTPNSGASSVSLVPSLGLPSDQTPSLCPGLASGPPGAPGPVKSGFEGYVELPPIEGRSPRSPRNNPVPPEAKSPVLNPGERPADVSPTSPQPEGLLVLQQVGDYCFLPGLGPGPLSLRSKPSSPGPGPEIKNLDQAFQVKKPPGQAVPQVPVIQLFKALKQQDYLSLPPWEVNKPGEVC
Sequence of Tyk2 kinase domain (DH1) (P29597 897-1176): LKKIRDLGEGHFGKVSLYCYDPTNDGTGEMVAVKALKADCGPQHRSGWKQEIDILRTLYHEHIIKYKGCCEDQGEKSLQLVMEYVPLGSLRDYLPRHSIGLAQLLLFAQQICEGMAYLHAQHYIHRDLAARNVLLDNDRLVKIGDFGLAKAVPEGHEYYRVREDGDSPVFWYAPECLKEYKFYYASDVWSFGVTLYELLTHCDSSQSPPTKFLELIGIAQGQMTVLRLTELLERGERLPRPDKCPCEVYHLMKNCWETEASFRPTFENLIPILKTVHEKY
Sequence of JAK2 kinase domain (JH1) (O60674 849-1124): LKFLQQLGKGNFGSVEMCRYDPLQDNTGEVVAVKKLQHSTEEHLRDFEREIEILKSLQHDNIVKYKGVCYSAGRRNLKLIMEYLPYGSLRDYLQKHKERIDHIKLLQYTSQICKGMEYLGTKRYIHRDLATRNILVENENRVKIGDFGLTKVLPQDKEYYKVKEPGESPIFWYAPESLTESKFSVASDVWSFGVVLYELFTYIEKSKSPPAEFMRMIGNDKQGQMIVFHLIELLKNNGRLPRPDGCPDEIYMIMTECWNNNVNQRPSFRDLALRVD

As for `CNc1cc(Nc2cccn([C@H]3CC[C@](C)(OC)CC3)c2=O)nc2c(C(=O)N[C@@H]3CC[C@H]3OC)cnn12` [I-959], the IC50 (as a rule, the concentration at which inhibition is half-maximal) is less than 100 nM in experiment [1] and greater than 50000 nM in experiment [5]. Besides, the Kd – broadly, the equilibrium constant for the complex coming apart – in experiment [2] is less than 0.2 nM. In experiment [3], the “JAK2 JH1% Inhibition @ 10 μM” value is on record as “A (percent inhibition at 10 μM lower than 50)”. The “Tyk2 JH1% Inhibition @ 10 μM” value in experiment [4] is recorded as “A (percent inhibition at 10 μM lower than 50)”.

On to `CNc1cc(-c2cn(C3CC3)c3ncccc23)nc2c(C(=O)NC3CC3)cnn12` [I-960, N-cyclopropyl-5-(1-cyclopropyl-1H-pyrrolo[2,3-b]pyridin-3-yl)-7-(methylamino)pyrazolo[1,5-a]pyrimidine-3-carboxamide], for which the values for the IC50 in experiment [1] and in experiment [5] were less than 100 nM and greater than 50000 nM, respectively. The Kd in experiment [2] was less than 0.2 nM. Further, the inhibition at 10 µM in experiment [3] and in experiment [4] was less than 50% in each case.

In the case of `CNc1cc(-c2cn(C3CC3)c3ncccc23)nc2c(C(=O)N[C@@H]3C[C@@H]3F)cnn12` [I-961, 5-(1-cyclopropyl-1H-pyrrolo[2,3-b]pyridine-3-yl)-N-((1R,2S)-2-fluorocyclopropyl)-7-(methylamino)pyrazolo[1,5-a]pyrimidine-3-carboxamide], the IC50 was less than 100 nM in experiment [1] and greater than 50000 nM in experiment [5]. In experiment [2], the Kd is less than 0.2 nM. Further, the inhibition at 10 µM in experiment [3] and in experiment [4] was less than 50% throughout.

Consider `CNc1cc(Nc2cccn(C3CCCCC3)c2=O)nc2c(C(=O)N[C@@H]3CC[C@@H]3O)cnn12` [I-1000], for which the IC50 in experiment [1] is less than 100 nM; in experiment [5], greater than 50000 nM. Also, the Kd in experiment [2] was less than 0.2 nM. The inhibition at 10 µM in experiment [3] and in experiment [4] was less than 50% each time.

As for `CNc1cc(Nc2cccn(C3CCCCC3)c2=O)nc2c(C(=O)N[C@@H]3CC[C@H]3O)cnn12` [I-1002], the results for the IC50 in experiment [1] and in experiment [5] were less than 100 nM and greater than 50000 nM, respectively. Besides, in experiment [2], the dissociation constant (Kd) is less than 0.2 nM. Besides, the “JAK2 JH1% Inhibition @ 10 μM” value in experiment [3] was “A (percent inhibition at 10 μM lower than 50)”. For the same compound, in experiment [4], the “Tyk2 JH1% Inhibition @ 10 μM” value is recorded as “A (percent inhibition at 10 μM lower than 50)”.
